In this experiment the target is T1, 14-3-3γ/ERRγ complex (Homo sapiens, UniProt P61981+P62508).
T1 construct: made in house; host or cells: E. coli NiCo21 (DE3)
Description: FA compound titration in HEK293 cell lysate. Particulars: 2 mg mL^–1 HEK293 cell lysate, 5 μM 14-3-3γ, 100 nM ERRγ peptide; read-out: half-maximal complex concentration (CC50). It is filed as binding. The method, then: The cell represents a complex biochemical environment composed of a high reducing potential, a pool of potential nucleophiles, and competing 14-3-3 interaction partners. To investigate molecular lock-induced complex formation in a reactive environment, we first investigated binary 14-3-3/ERRγ formation in the HEK293 cell lysate. Here, the HEK293 cell lysate was titrated to the preformed 14-3-3γ/ERRγ complex in an FA assay and incubated overnight (Figure S25a–c). […] Next, we investigated molecular lock 5-induced complex formation (Figures S25 and S26). […] Moreover, early observed cell lysate-induced abolishment of the 14-3-3γ/ERRγ complex formation was almost completely recovered upon addition of 5, to similar complex concentrations to that in the absence of the lysate. […]
Figure S25. […] (d -e) Fluorescence anisotropy studies of compound 5 (right) titrations or DMSO as negative control (left) to a preformed complex of 14 -3-3γ (5 µM, 0.16 mg/mL) and fluorescein labelled ERRγ peptide (100 nM) at various concentrations HEK293 cell lysate (up to 2 mg/mL). […]
Figure S26. […] Fluorescence anisotropy studies of compound 5 titrations (or DMSO as negative control) to a preformed complex of 14-3-3γ (5 µM) and fluorescein labelled ERRγ peptide (100 nM). Assay is performed in presence of various concentrations HEK293 cell lysate (up to 2 mg/mL) and is measured over time (every hour for 12 hours). […]

T1 sequence (P61981 whole entry, other chains not shown): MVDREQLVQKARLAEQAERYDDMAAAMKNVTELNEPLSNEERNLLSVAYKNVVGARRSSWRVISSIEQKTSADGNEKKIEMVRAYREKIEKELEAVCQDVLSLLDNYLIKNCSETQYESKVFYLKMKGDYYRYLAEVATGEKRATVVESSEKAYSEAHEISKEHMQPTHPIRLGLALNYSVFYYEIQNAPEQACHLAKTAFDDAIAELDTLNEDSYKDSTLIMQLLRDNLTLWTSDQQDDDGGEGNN

Turning to `CN(C)CCSSCCN(C)C(=O)c1ccc(C=O)c(F)c1` [compound 5], the CC50 was 240 µM.

The values are drawn from article PMC10064330, “Reversible Dual-Covalent Molecular Locking of the 14-3-3/ERRγ Protein–Protein Interaction as a Molecular Glue Drug Discovery Approach” (Journal of the American Chemical Society, 2023).
